Where two headings read alike, the source gives them in different places.
Columns and labels:
[1] = target: Human α2δ-1 Subunit of Cav2.2 Calcium Channel (Homo sapiens, UniProt P54289); experiment: Binding assay to human α2δ-1 subunit of Cav2.2 calcium channel ([3H]-Gabapentin); conditions: human α2δ-1 enriched membranes, 15 nM [3H]-Gabapentin, read-out: Ki(nM) alpha2delta Hum
Procedure: Binding Assay to Human α2δ-1 Subunit of Cav2.2 Calcium Channel.
Human α2δ-1 enriched membranes (2.5 μg) were incubated with 15 nM of radiolabeled [3H]-Gabapentin in assay buffer containing Hepes-KOH 10 mM, pH 7.4.
(§1) NSB (non specific binding) was measured by adding 10 μM pregabalin. The binding of the test compound was measured in five different concentrations. After 60 min incubation at 27° C., binding reaction was terminated by filtering through Multiscreen GF/C (Millipore) presoaked in 0.5% polyethyleneimine in Vacuum Manifold Station, followed by 3 washes with ice-cold filtration buffer containing 50 mM Tris-HCl, pH 7.4.
(§2) Filter plates were dried at 60° C. for 1 hour and 30 μl of scintillation cocktail were added to each well before radioactivity reading.
(§3) Readings were performed in a Trilux 1450 Microbeta radioactive counter (Perkin Elmer).

[2] = target: Human Norepinephrine Transporter (NET) (Homo sapiens, UniProt P23975); experiment: Binding assay to human norepinephrine transporter (NET) ([3H]-Nisoxetin); conditions: Table 2 (dual compounds); human NET enriched membranes, 5 nM [3H]-Nisoxetin; read-out: Ki(nM) NET Hum
Chain of Human Norepinephrine Transporter (NET) (P23975 whole entry): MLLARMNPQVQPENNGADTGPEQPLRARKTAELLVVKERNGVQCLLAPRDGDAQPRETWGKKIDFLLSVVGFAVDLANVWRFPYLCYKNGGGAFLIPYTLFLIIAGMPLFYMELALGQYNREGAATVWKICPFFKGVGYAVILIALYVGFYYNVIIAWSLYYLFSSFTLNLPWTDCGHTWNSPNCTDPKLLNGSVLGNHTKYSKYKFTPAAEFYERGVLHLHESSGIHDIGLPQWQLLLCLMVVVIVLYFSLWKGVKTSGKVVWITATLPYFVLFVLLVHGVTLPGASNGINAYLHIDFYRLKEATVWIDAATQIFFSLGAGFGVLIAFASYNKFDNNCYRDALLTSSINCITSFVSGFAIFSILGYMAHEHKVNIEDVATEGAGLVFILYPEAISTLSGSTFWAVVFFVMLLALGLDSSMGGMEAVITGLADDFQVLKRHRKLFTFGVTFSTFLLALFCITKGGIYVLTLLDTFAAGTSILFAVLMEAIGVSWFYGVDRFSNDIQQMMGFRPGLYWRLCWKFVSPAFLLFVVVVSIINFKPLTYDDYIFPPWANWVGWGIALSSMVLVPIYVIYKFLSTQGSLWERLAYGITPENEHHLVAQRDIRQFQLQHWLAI
Procedure: Binding Assay to Human Norepinephrine Transporter (NET).
Human norepinephrine transporter (NET) enriched membranes (5 μg) were incubated with 5 nM of radiolabeled [3H]-Nisoxetin in assay buffer containing 50 mM Tris-HCl, 120 mM NaCl, 5 mM KCl, pH 7.4.
as §1, with “desipramine.” for “pregabalin.”, “4°” for “27°”, “Tris-HCl, 0.9% NaCl,” for “Tris-HCl,”
as §2, §3

Chain of Human α2δ-1 Subunit of Cav2.2 Calcium Channel (P54289 25-1103): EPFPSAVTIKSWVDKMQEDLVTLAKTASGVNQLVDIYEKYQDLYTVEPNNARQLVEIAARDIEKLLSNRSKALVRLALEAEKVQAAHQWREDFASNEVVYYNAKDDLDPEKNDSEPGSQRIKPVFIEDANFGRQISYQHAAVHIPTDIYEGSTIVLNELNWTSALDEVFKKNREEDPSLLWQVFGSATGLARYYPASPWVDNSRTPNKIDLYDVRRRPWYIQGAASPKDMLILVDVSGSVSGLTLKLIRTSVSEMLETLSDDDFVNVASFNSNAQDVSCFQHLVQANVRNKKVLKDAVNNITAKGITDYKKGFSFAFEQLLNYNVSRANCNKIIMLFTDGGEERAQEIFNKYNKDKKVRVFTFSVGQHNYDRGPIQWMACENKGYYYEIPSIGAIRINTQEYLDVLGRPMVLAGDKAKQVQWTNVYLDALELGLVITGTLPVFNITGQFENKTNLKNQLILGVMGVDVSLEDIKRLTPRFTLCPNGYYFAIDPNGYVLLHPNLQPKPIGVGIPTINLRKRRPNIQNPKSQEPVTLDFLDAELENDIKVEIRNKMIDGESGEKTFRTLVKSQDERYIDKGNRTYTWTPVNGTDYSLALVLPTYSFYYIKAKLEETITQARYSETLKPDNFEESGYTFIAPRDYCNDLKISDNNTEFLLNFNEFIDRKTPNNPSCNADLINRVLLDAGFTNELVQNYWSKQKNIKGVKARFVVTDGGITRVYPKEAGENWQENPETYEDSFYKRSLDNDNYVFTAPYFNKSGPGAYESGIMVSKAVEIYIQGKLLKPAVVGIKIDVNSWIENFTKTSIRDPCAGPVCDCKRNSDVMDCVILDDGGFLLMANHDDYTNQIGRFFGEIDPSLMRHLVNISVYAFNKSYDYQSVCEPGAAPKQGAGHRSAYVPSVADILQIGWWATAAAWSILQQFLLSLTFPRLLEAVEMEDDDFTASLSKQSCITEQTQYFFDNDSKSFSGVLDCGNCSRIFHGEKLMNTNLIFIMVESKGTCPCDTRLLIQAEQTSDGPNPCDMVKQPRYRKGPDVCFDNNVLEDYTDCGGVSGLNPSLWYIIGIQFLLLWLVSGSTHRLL

SMILES | Ki ([1]; Table 1) | Ki ([1]; Table 2 (dual compounds)) | Ki [2]
CNCCC(Oc1cccc(CNCc2ccccc2)c1)c1cccs1 (stereo not drawn) [Example 2, 3-(3-((Benzylamino)methyl)phenoxy)-N-methyl-3-(thiophen-2-yl)propan-1-amine] | 500 to 3000 nM | 500 to 3000 nM | 100 to 500 nM
CNCCC(Oc1cccc(CN(C)Cc2ccccc2)c1)c1cccs1 (stereo not drawn) [Example 6, 3-(3-((Benzyl(methyl)amino)methyl)phenoxy)-N-methyl-3-(thiophen-2-yl)propan-1-amine] | 100 to 500 nM | 100 to 500 nM | 500 to 1000 nM
CNCCC(Oc1cccc(C(=O)Nc2ccccc2)c1)c1ccccc1 (stereo not drawn) [Example 13, 3-(3-(Methylamino)-1-phenylpropoxy)-N-phenylbenzamide] | ≥ 3000 nM | ≥ 3000 nM | 500 to 1000 nM
CNCCC(Oc1cccc(C(=O)Nc2cccc(-c3nnc(C)o3)c2)c1)c1ccccc1 (stereo not drawn) [Example 14, N-(3-(5-methyl-1,3,4-oxadiazol-2-yl)phenyl)-3-(3-(methylamino)-1-phenylpropoxy)benzamide] | ≥ 3000 nM | ≥ 3000 nM | 100 to 500 nM
CNCCC(Oc1cccc(C(=O)Nc2cccnc2)c1)c1ccccc1 (stereo not drawn) [Example 15, 3-(3-(Methylamino)-1-phenylpropoxy)-N-(pyridin-3-yl)benzamide] | ≥ 3000 nM | ≥ 3000 nM | 100 to 500 nM
CNCCC(Oc1cccc(C(=O)NCc2ccccc2)c1)c1ccccc1 (stereo not drawn) [Example 17, N-benzyl-3-(3-(methylamino)-1-phenylpropoxy)benzamide] | ≥ 3000 nM | ≥ 3000 nM | 500 to 1000 nM
CNCCC(Oc1cccc(C(=O)NCc2ccccn2)c1)c1ccccc1 (stereo not drawn) [Example 18, 3-(3-(Methylamino)-1-phenylpropoxy)-N-(pyridin-2-ylmethyl)benzamide] | ≥ 3000 nM | ≥ 3000 nM | 500 to 1000 nM
CNCCNC(=O)c1cccc(OC(CCNC)c2ccccc2)c1 (stereo not drawn) [Example 20, 3-(3-(Methylamino)-1-phenylpropoxy)-N-(2-(methylamino)ethyl)benzamide] | 500 to 3000 nM | 500 to 3000 nM | 500 to 1000 nM
CNCCC(Oc1cccc(C(=O)NC2CCN(C)CC2)c1)c1ccccc1 (stereo not drawn) [Example 22, 3-(3-(Methylamino)-1-phenylpropoxy)-N-(1-methylpiperidin-4-yl)benzamide] | 500 to 3000 nM | 500 to 3000 nM | ≥ 1000 nM
CNCCC(Oc1cccc(N(C)C(=O)c2cccc(CN)c2)c1)c1ccccc1 (stereo not drawn) [Example 27, 3-(Aminomethyl)-N-methyl-N-(3-(3-(methylamino)-1-phenylpropoxy)phenyl)benzamide] | ≥ 3000 nM | ≥ 3000 nM | 500 to 1000 nM
CNCCC(Oc1cccc(N(C)C(=O)CCCN)c1)c1ccccc1 (stereo not drawn) [Example 28, 4-Amino-N-methyl-N-(3-(3-(methylamino)-1-phenylpropoxy)phenyl)butanamide] | ≥ 3000 nM | ≥ 3000 nM | 500 to 1000 nM
CCNc1ncc(C(=O)N(C)c2cccc(COC(CCNC)c3cccs3)c2)c(N2CCCC2)n1 (stereo not drawn) [Example 38, 2-(Ethylamino)-N-methyl-N-(3-((3-(methylamino)-1-(thiophen-2-yl)propoxy)methyl)phenyl)-4-(pyrrolidin-1-yl)pyrimidine-5-carboxamide] | 500 to 3000 nM | 500 to 3000 nM | 500 to 1000 nM
CNCCC(OCc1cccc(NC(=O)c2ccccc2)c1)c1ccccc1 (stereo not drawn) [Example 39, N-(3-((3-(methylamino)-1-phenylpropoxy)methyl)phenyl)benzamide] | ≥ 3000 nM | ≥ 3000 nM | 500 to 1000 nM
CNCCC(OCc1cccc(NC(=O)c2cnc(OC)nc2)c1)c1ccccc1 (stereo not drawn) [Example 41, 2-Methoxy-N-(3-((3-(methylamino)-1-phenylpropoxy)methyl)phenyl)pyrimidine-5-carboxamide] | ≥ 3000 nM | ≥ 3000 nM | 500 to 1000 nM
CNCCC(OCc1cccc(NC(=O)c2ccccn2)c1)c1ccccc1 (stereo not drawn) [Example 43, N-(3-((3-(methylamino)-1-phenylpropoxy)methyl)phenyl)picolinamide] | ≥ 3000 nM | ≥ 3000 nM | 500 to 1000 nM
CNCCC(OCc1cccc(NC(=O)c2ccccc2)c1)c1cccs1 (stereo not drawn) [Example 46, N-(3-((3-(methylamino)-1-(thiophen-2-yl)propoxy)methyl)phenyl)benzamide] | ≥ 3000 nM | ≥ 3000 nM | 500 to 1000 nM
CNCCC(OCc1cccc(NC(=O)c2ccccc2F)c1)c1cccs1 (stereo not drawn) [Example 48, 2-Fluoro-N-(3-((3-(methylamino)-1-(thiophen-2-yl)propoxy)methyl)phenyl)benzamide] | ≥ 3000 nM | ≥ 3000 nM | 500 to 1000 nM
CCNc1ncc(C(=O)Nc2cccc(OC(CCNC)c3ccccc3)c2)c(N2CCCC2)n1 (stereo not drawn) [Example 50, 2-(Ethylamino)-N-(3-(3-(methylamino)-1-phenylpropoxy)phenyl)-4-(pyrrolidin-1-yl)pyrimidine-5-carboxamide] | ≥ 3000 nM | ≥ 3000 nM | 500 to 1000 nM
CNCCC(OCc1cccc(Nc2ccccc2)c1)c1ccccc1 (stereo not drawn) [Example 58, 3-((3-(Methylamino)-1-phenylpropoxy)methyl)-N-phenylaniline] | ≥ 3000 nM | ≥ 3000 nM | 100 to 500 nM
CNCCC(OCc1cccc(N(C(C)=O)c2ccccc2)c1)c1ccccc1 (stereo not drawn) [Example 61, N-(3-((3-(methylamino)-1-phenylpropoxy)methyl)phenyl)-N-phenylacetamide] | ≥ 3000 nM |  | 
CNCCC(Oc1cccc(N(C)C(C)=O)c1)c1cccs1 (stereo not drawn) [Example 62, N-methyl-N-(3-(3-(methylamino)-1-(thiophen-2-yl)propoxy)phenyl)acetamide] | ≥ 3000 nM |  | 
CNCCC(Oc1cccc(N(C)C(=O)c2ccccc2)c1)c1cccs1 (stereo not drawn) [Example 63, N-methyl-N-(3-(3-(methylamino)-1-(thiophen-2-yl)propoxy)phenyl)benzamide] | ≥ 3000 nM |  | 
CCCC(=O)N(C)c1cccc(OC(CCNC)c2cccs2)c1 (stereo not drawn) [Example 64, N-methyl-N-(3-(3-(methylamino)-1-(thiophen-2-yl)propoxy)phenyl)butyramide] | ≥ 3000 nM |  | 
CNCCC(Oc1cccc(N(C)C(=O)c2cccnc2)c1)c1cccs1 (stereo not drawn) [Example 65, N-methyl-N-(3-(3-(methylamino)-1-(thiophen-2-yl)propoxy)phenyl)nicotinamide] | ≥ 3000 nM |  | 
CNCCC(Oc1cccc(C(=O)Nc2ccccc2)c1)c1cccs1 (stereo not drawn) [Example 66, 3-(3-(Methylamino)-1-(thiophen-2-yl)propoxy)-N-phenylbenzamide] | 500 to 3000 nM |  | 
CNCCC(Oc1cccc(C(=O)N(C)c2ccccc2)c1)c1cccs1 (stereo not drawn) [Example 67, N-methyl-3-(3-(methylamino)-1-(thiophen-2-yl)propoxy)-N-phenylbenzamide] | ≥ 3000 nM |  | 
CNCCC(Oc1cccc(C(=O)N(C)c2cccnc2)c1)c1ccccc1 (stereo not drawn) [Example 68, N-methyl-3-(3-(methylamino)-1-phenylpropoxy)-N-(pyridin-3-yl)benzamide] | ≥ 3000 nM |  | 
CNCCC(Oc1cccc(C(=O)N(C)c2ccccc2)c1)c1ccccc1 (stereo not drawn) [Example 69, N-methyl-3-(3-(methylamino)-1-phenylpropoxy)-N-phenylbenzamide] | ≥ 3000 nM |  | 
CNCCC(Oc1ccc(CN(C)Cc2ccccc2)c(F)c1)c1cccs1 (stereo not drawn) [Example 70, 3-(4-((Benzyl(methyl)amino)methyl)-3-fluorophenoxy)-N-methyl-3-(thiophen-2-yl)propan-1-amine] | ≥ 3000 nM | ≥ 3000 nM | 100 to 500 nM
CNCCC(Oc1ccc(CNCc2ccccc2)c(F)c1)c1cccs1 (stereo not drawn) [Example 71, 3-(4-((Benzylamino)methyl)-3-fluorophenoxy)-N-methyl-3-(thiophen-2-yl)propan-1-amine] | ≥ 3000 nM | ≥ 3000 nM | < 100 nM
